Assay results published in patent EP2687213B1, “Solid forms comprising (+)-2-[1-(3-ethoxy-4-methoxyphenyl)-2-methylsulfonylethyl]-4-acetylaminoisoindoline-1,3-dione, compositions thereof, and uses thereof” (CELGENE CORPORATION, priority 2008, dated 2009).

What was measured:
[1] = tested on: subjects with moderate to severe plaque-type psoriasis; test: Phase 2 randomized double-blind placebo-controlled study in moderate to severe plaque-type psoriasis; type: in vivo, human
Method: This phase 2, multicenter, randomized, double-blind, placebo-controlled, parallel-group, dose-comparison study evaluated the efficacy and safety of Compound A in subjects with moderate to severe plaque-type psoriasis who were candidates for systemic therapy.
This study included a 12-week treatment phase followed by a 4-week observational follow-up phase. A total of 260 subjects were randomized to receive Compound A 20 mg BID, Compound A 20 mg QD, or placebo for 12 weeks. The primary endpoint for this study was the proportion of subjects treated with Compound A who achieved a 75% reduction in Psoriasis Area and Severity Index score ("PASI-75") at week 12/last treatment in reference to the baseline visit. Last treatment is defined as the last PASI assessment completed during the 12-week treatment phase.

[2] = Equilibrium aqueous solubility in pH 7.4 buffer; type: physicochemical
Method: Equilibrium solubilities were measured in pH 7.4 aqueous buffer. The pH 7.4 buffer was prepared by adjusting the pH of a 0.07 M NaH2PO4 solution to 7.4 with 10 N NaOH. The ionic strength of the solution was 0.15. At least 1 mg of powder was combined with 1 ml of buffer to make >1 mg/ml mixture. These samples were shaken for >2 hours and left to stand overnight at room temperature. The samples were then filtered through a 0.45-µm Nylon syringe filter that was first saturated with the sample. The filtrate was sampled twice, consecutively. The filtrate was assayed by HPLC against standards prepared in 50% methanol.

CCOc1cc(C(CS(C)(=O)=O)N2C(=O)c3cccc(NC(C)=O)c3C2=O)ccc1OC (single isomer, unassigned; (+)) [Compound A, (+)-2-[1-(3-ethoxy-4-methoxyphenyl)-2-methylsulfonylethyl]-4-acetylaminoisoindoline-1,3-dione]
psoriasis flare during the observational follow-up period ([1]; 20 mg BID group, 4-week follow-up): No subjects
study drug-related serious adverse events ([1]; 20 mg BID or 20 mg QD, 12 weeks): No study drug-related serious adverse events were reported
tolerability and safety (overall conclusion) ([1]; 12 weeks of treatment): well tolerated and safe
aqueous solubility greater than the racemic mixture [2]: 3.5 fold
